This is an account of results in patent publication US20040166151A1, “Lipid-based drug delivery systems containing phospholipase A2 degradable lipid derivatives and the therapeutic uses thereof” (priority 2000, published 2004).

The subject of data set [1] is mice. The experiment in a line: In vivo hemolysis assay. The conditions noted are these: i.v., 50 mg/kg.
Protocol: Groups of mice (n=5/group; weight 18-22 g) were treated i.v. with buffer (PBS), ET-18-OCH3 (50 mg/kg), and liposomes composed of 1-O-DPPC with 5 mol % 1-O-DPPE-PEG2000 (68.7 and 137.5 mg/kg). 30 min after injection, 100 μl blood was collected into heparinised tubes directly from decapitated, CO2-anesthetised mice. The blood was centrifuged at 500×G for 10 min, and plasma was removed and stored at −20° C. until analysed.
The degree of hemolysis was measured by absorbance at 550 nm using a Perkin-Elmer 320 scanning spectrophotometer. 25 μl plasma was mixed with 2,5 ml PBS or 2.5 ml 10% triton X-100. 100 percent hemolysis was defined as the maximum amount of hemolysis obtained from the plasma of PBS treated mice mixed with 10% Triton X-100 and 0 percent as plasma from PBS treated mice mixed with PBS.
Data set [2] has as its system human red blood cells (RBC). In words: Hemolysis assay. The conditions noted are these: low concentrations, 37° C., 20 hours.
Protocol: Briefly, each sample was serially diluted with phosphate buffered saline (PBS), and 0.5 ml of each dilute suspension was mixed with 0.5 ml washed human red blood cells (RBC) [4% in PBS (v/v)]. Sample and standard were placed in a 37° C. incubator and agitated for 20 hours. Tubes were centrifuged at low speed (2000×G) for 10 minutes and 200 μl of the supernatant was quantitated by absorbance at 550 nm. 100 percent hemolysis was defined as the maximum amount of hemolysis obtained from the detergent Triton X-100.
1-O-octadecyl-2-O-methyl-sn-glycero-3-phosphocholine (ET-18-OCH3) in PBS was included in the assay as a reference.
Briefly, each sample was serially diluted with PBS, and 0.5 ml of each dilute suspension of 1-O-DPPC liposomes were mixed with 0.5 ml washed human red blood cells (RBC) [4% in PBS (v/v)]. For controls, 0.5 ml of the red blood cell suspension was mixed with either 0.5 ml buffer solution (negative hemolysis control) or 0.5 ml water (positive hemolysis control). Samples and standard were placed in a 37° C. incubator and agitated for 20 hours. Tubes were centrifuged at low speed (2000×G) for 10 minutes to form RBCs pellets. 200 μl of the supernatant was quantitated by absorbance at 550 nm using a Perkin-Elmer 320 scanning spectrophotometer. 100 percent hemolysis was defined as the maximum amount of hemolysis obtained from the detergent Triton X-100.
Data set [3] has as its target T1, extracellular PLA2 (Agkistrodon piscivorus piscivorus, UniProt P51972).
T1 construct: Purified snake venom PLA2 (Agkistrodon piscivorus piscivorus) was a generous gift; tissue gift from dr; R. L. Biltonen; host or cells: snake venom of Agkistrodon piscivorus piscivorus
T1 sequence (P51972 1-123): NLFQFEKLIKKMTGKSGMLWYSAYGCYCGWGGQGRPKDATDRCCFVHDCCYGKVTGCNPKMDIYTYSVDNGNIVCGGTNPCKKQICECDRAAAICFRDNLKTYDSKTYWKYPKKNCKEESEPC
In words: Effect of cholesterol content of liposomes on extracellular PLA2 activity. The class given is biochemical. The text has this:
Short-chain phospholipids, such as didecanoyl phosphatidylcholine (DCPC), activate extracellular PLA2. The effect on calcein permeation across the target membranes induced by incorporation of a small amount of DCPC into the carrier PEG-liposomes is also shown in FIG. 12.a. […] In contrast we find that a small amount of cholesterol (≈3 mol %) activates extracellular PLA2. These significant findings are of particular interest since the blood circulation time of PEG-liposomes has been reported to be almost the same without cholesterol as with large amounts of cholesterol.

A short description of data set [4]: Calcein release across target membrane on adding hydrolysis products in the absence of PLA2. As to conditions: 25 μM target membranes, 39° C.
Protocol: Total release after 20 min of the fluorescent model drug calcein across the target membrane as a function of adding increasing amounts of lyso-palmitoyl phospholipid and palmitic acid, separately, and in a 1:1 mixture. The concentration of the target membranes is 25 μM in a HEPES buffer with pH=7.5 at a temperature of 39° C.
The experimental model system consists of a polymer-coated liposome carrier and a model target membrane. The carrier is a 100 nm unilamellar liposome made of dipalmitoyl phosphatidylcholine lipids (DPPC) with 2.5 mol % lipopolymer of the type dipalmitoyl phosphatidylethanolamine (DPPE)-PEG2000. The target membrane is another liposome made of 1,2-O-dioctadecyl-sn-glycero-phosphatidylcholine (D-O-SPC) which is a phospholipid where the acyl linkages of the stearoyl chains are ether bonds. In contrast to DPPC, D-O-SPC is inert towards PLA2-catalysed hydrolysis thereby mimicking the stability of an intact target cell membrane toward degradation by its own enzymes. […] The permeation of calcein across the D-O-SPC target membrane is subsequently monitored by the increase in fluorescence. […]

With `CCCCCCCCCCCCCCCCCCOC[C@H](COP(=O)([O-])OCC[N+](C)(C)C)OC` [ET-18-OCH3], in data set [1], the “Survival (30 min), number of surviving mice” value was 0/5 and the “mortality of treated mice” value is listed as “died within the 30 minutes period”. For the same compound, the “hemolysis (FIG. 6)” value in data set [2] is “significant degree of hemolysis”.

On to `CC(C)CCC[C@@H](C)[C@H]1CC[C@H]2[C@@H]3CC=C4C[C@@H](O)CC[C@]4(C)[C@H]3CC[C@]12C` [cholesterol], for which the “extracellular PLA2 activity” value is recorded as “activates” in data set [3] (≈3 mol % cholesterol incorporated into liposomes) and “deactivated” in data set [3] (≈20 mol % cholesterol incorporated into liposomes, data not shown).

Turning to `CCCCCCCCCCCCCCCC(=O)O` [fatty acid, palmitic acid], in data set [4], the “rate of calcein release across the target membrane (FIG. 13)” value is listed as “increased rate”.
